Results on nine compounds are retold here after ChEMBL document CHEMBL1127149, “The squalestatins: potent inhibitors of squalene synthase. The role of the tricarboxylic acid moiety” (Bioorg Med Chem Lett, 1993).

A value given as a limit tells only on which side of the number the result lay.

The first experiment has as its target T1, Squalene synthase (Rattus norvegicus, UniProt Q02769).
T1 sequence (Q02769 whole entry): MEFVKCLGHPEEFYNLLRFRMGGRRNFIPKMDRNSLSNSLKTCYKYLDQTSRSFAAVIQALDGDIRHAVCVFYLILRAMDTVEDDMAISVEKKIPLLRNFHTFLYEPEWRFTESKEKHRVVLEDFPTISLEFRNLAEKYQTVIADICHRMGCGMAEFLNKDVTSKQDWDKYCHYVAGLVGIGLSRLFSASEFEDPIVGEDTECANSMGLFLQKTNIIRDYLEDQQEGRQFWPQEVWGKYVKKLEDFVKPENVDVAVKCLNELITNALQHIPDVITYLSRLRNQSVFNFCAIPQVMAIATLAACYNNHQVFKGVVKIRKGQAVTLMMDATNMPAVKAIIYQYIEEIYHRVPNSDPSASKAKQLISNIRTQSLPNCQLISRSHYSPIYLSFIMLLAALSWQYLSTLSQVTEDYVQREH
In words: In vitro inhibitory activity measured against rat squalene synthase(SQS) enzyme.
Conditions: not given
`C=C(CC[C@]12O[C@H](C(=O)OC)[C@@](O)(C(=O)O)[C@](C(=O)OC)(O1)[C@H](OC(=O)/C=C/[C@@H](C)C[C@@H](C)CC)[C@H]2O)[C@@H](OC(C)=O)[C@H](C)Cc1ccccc1`: the IC50 is above 0.5 µM. For `C=C(CC[C@]12O[C@H](C(=O)OC)[C@@](O)(C(=O)O)[C@](C(=O)O)(O1)[C@H](O)[C@H]2O)[C@@H](OC(C)=O)[C@H](C)Cc1ccccc1`, the concentration for half-maximal inhibition (IC50) came to 0.22 µM. Take `C=C(CC[C@]12O[C@H](C(=O)OC)[C@@](O)(C(=O)OC)[C@](C(=O)OC)(O1)[C@H](OC(=O)/C=C/[C@@H](C)C[C@@H](C)CC)[C@H]2O)[C@@H](OC(C)=O)[C@H](C)Cc1ccccc1`: the 50% inhibitory concentration (IC50) is above 0.5 µM. `C=C(CC[C@]12O[C@H](C(=O)O)[C@@](O)(C(=O)O)[C@](C(=O)OC)(O1)[C@H](OC(=O)/C=C/[C@@H](C)C[C@@H](C)CC)[C@H]2O)[C@@H](OC(C)=O)[C@H](C)Cc1ccccc1` showed a concentration for half-maximal inhibition (IC50) above 0.5 µM. `C=C(CC[C@]12O[C@H](C(=O)O)[C@@](O)(C(=O)O)[C@](C(=O)OC)(O1)[C@H](O)[C@H]2O)[C@@H](OC(C)=O)[C@H](C)Cc1ccccc1` showed a 50% inhibitory concentration (IC50) above 0.5 µM.

As to `C=C(CC[C@]12O[C@H](C(=O)O)[C@@](O)(C(=O)OC)[C@](C(=O)O)(O1)[C@H](O)[C@H]2O)[C@@H](OC(C)=O)[C@H](C)Cc1ccccc1`, the IC50 amounted to 0.355 µM.

As to `C=C(CC[C@]12O[C@H](C(=O)OC)[C@@](O)(C(=O)OC)[C@](C(=O)O)(O1)[C@H](OC(=O)/C=C/[C@@H](C)C[C@@H](C)CC)[C@H]2O)[C@@H](OC(C)=O)[C@H](C)Cc1ccccc1`, the half-maximal inhibitory concentration (IC50) turned out to be 0.134 µM. The same measure, in the same setting: the figure for `C=C(CC[C@]12O[C@H](C(=O)O)[C@@](O)(C(=O)OC)[C@](C(=O)OC)(O1)[C@H](OC(=O)/C=C/[C@@H](C)C[C@@H](C)CC)[C@H]2O)[C@@H](OC(C)=O)[C@H](C)Cc1ccccc1` is above 0.5 µM.

For a further experiment, the species on record is Rattus norvegicus. In words: Inhibitory activity of compound was measured against cholesterol biosynthesis from [14C]- acetate by isolated rat hepatocytes. It counts as functional. The following applies: Hepatocyte.
`C=C(CC[C@]12O[C@H](C(=O)O)[C@@](O)(C(=O)O)[C@](C(=O)O)(O1)[C@H](OC(=O)/C=C/[C@@H](C)C[C@@H](C)CC)[C@H]2O)[C@@H](OC(C)=O)[C@H](C)Cc1ccccc1` [ZARAGOZIC ACIDS A] displayed a half-maximal inhibitory concentration (IC50) of 0.039 µM.
